The pKa sets of Baltruschat and Czodrowski (2020)

Conditions: basic group

Compound | pKa
Cc1ccnc([S-])[nH+]1 | 2.2
[S-]c1ccnc([S-])[nH+]1 | 6.46
Nc1nc(N)c2ccccc2n1 | 8.12
CN(C)CC(P(=O)([O-])[O-])P(=O)([O-])[O-] | 8.98
CC1(C)CC(Nc2ccccc2)=C/C(=N/c2ccccc2)C1 | 9.89
c1ccc2[nH]cnc2c1 | 5.51
Cc1nnc2c(c1C)CCCC2 | 5.41
CNCCN(C)CCNC | 10.4
NCCCCCCCCCCC(=O)[O-] | 11
CCC(O)CN(CCO)C(C)(C)C (stereo unspecified) | 9.4
CN(C)CCCCCCCNC(=O)/C=N/[O-] | 10.5
Cc1ccc2ccc3ccc(C)nc3c2n1 | 6.15
CN(c1ccccc1)C1CCCC1 | 6.71
C[NH+](C)CCc1nnn[nH]1 | -2.8
CC[NH2+]CCN | 7.52
Cc1nc2c(N)cccc2[nH]1 | 8.1
CC(C)CN(CCS)CC(C)C | 8.23
NCC[n+]1ccc2c([N+](=O)[O-])cccc2c1 | 6.65
CC(O)CN(CC(C)O)C(C)C (stereo unspecified) | 9.33
COc1cc(S(C)=O)ccc1-c1nc2[nH]ncc2[nH]1 (stereo unspecified) | 3.8
[O-]c1cc2nc(c1)COCCOCCSCCOCCOC2 | 10.1
COc1ccc(-c2nc3ncncc3[nH]2)c(OC)c1 | 3.09

Compound | pKa
O=[N+]([O-])c1ccc(-c2ncc(-c3ccccc3)o2)cc1 | -0.61
CC(C)(C)[C@]1(O)CCN2C[C@H]3c4ccccc4CCc4cccc(c43)[C@@H]2C1 | 7.15
O/N=C1C=C/C(=N\O)c2cccnc2/1 | 3.7
C/N=c1/sc2c(n1C)CCCC2 | 10
NC1=[NH+][C@H]2C[C@@H](N1)N[C@@H]2C(=O)[O-] | 5.5
CN/C=N/c1cccc(-c2csc(N=C(N)N)n2)c1 | 8.29
Oc1ccccc1CN1CCOCC1 | 7.71
Nc1ccc(Cl)cc1[N+](=O)[O-] | -0.88
c1cc(-c2ccoc2)ccn1 | 5.72
CC(C)C[C@H](N)C(=O)[O-] | 9.62
N[C@@H]1CCC[C@@H]1O | 9.7
CNCC/C(N)=N/O | 9.6
Nc1ccc([N+](=O)[O-])c(F)c1 | -0.3
COc1ncnc2c1cnn2C | 2.51
NCC[NH2+]Cc1ccccc1 | 6.48
CN(C)Cc1ccc(C[NH+](C)C)c(O)c1O | 6.39
CC(=O)c1ccc([O-])c(CN(C)C)c1 | 10
CN(C)/C=N/c1ccccc1O | 7.41
CC1=C(CC(C)NCC(O)c2ccc(C)cc2)CCC1(C)C (stereo unspecified) | 8.71
Cn1cncc1C[C@H](NC(=O)CC[NH3+])C(=O)[O-] | 7.08
CC[NH+](C)CCOCCN(C)C | 7.96
CC1CNCc2ccccc2OCCOc2ccccc2C[NH2+]1 (stereo unspecified) | 6.01

Compound | pKa
CCN(CC)CC(=O)NCc1ccccc1 | 8.07
CCOC(C)=N | 7.15
CN(C)c1ccc(/C=C/c2ccncc2)cc1 | 6.25
O=C([O-])c1ccnc2ccccc12 | 4.76
CCN(CC)CCCNC(=O)/C=N/[O-] | 10.3
Oc1ccc(F)cc1CN1CCOCC1 | 6.78
NCC(=O)Nc1ccccc1 | 8.12
Cc1ccc(CN)cc1N | 9.77
CC(Cl)CN(C)C (stereo unspecified) | 8.12
Nc1ccc2c(N)c3ccccc3nc2c1 | 11.5
NC(Cc1ccccc1)C(=O)[O-] (stereo unspecified) | 9.17
CC(C)(C)NCCCCCCNC(C)(C)C | 11
Cc1cc2ncn([C@H]3O[C@@H](CO)[C@H](O)[C@@H](O)[C@@H]3O)c2cc1C | 4.63
NCC[NH2+]CCCO | 6.78
Cc1ccnc(/N=C/c2ccc([N+](=O)[O-])cc2)n1 | 3.66
c1ccc2c(c1)CNCCCNCc1ccccc1OCCO2 | 9.82
C[C@H](CCCN)[C@H]1CC[C@H]2[C@@H]3CC[C@@H]4C[C@H](O)CC[C@]4(C)[C@H]3CC[C@]12C | 9.7
CCOc1ccc(/N=C/N(C)C)cc1 | 9.24
N#Cc1ccc2c(c1)CCN2 | 2.8
CN(C)CC[Se-] | 10.8
C#CC(C)(C)N(CC)C(C)(C)C | 9.6
Nc1ccc(S(=O)(=O)Nc2ccc[nH+]c2)cc1 | 1.59

Compound | pKa
CCCCCN(CC(C)O)CC(O)CC (stereo unspecified) | 9.1
CC(C)(C)CC(C)(C)N | 10.8
[O-]c1ccnc2nccnc12 | 8.78
c1ccc(CC2CCCN2)cc1 (stereo unspecified) | 10.3
NCCC=C(Cl)Cl | 9.85
CN(C)c1ccc([NH+](C)C)cc1 | 2.5
CN(C)CCCC(=O)Oc1ccccc1 | 9.7
Cc1ccc(O)c(CN(C)C)c1 | 8.68
Cc1cc(-c2cccc[nH+]2)nn1C | -1.6
Nc1cccc2ccc3ncccc3c12 | 5.03
CN(C)C[C@@H]1[C@H](CO)[C@H]2C=C[C@@H]1C2 | 9.54
[NH3+]c1ccc(-c2ncc(-c3ccc(Br)cc3)o2)cc1 | -0.05
CC(=O)SCCN(C)C | 8.27
CC1(C)CCC(C2CCC(C)(C)[NH2+]2)N1 (stereo unspecified) | 6.95
c1ccc(CN2CCCC2)cc1 | 9.51
CN(C)c1cccc([N+](C)(C)C)c1 | 2.6
CN(C)c1ccc(C2=CN3CCC2CC3)cc1 | 9.82
Cn1ncc2c(NCCO)ncnc21 | 3.86
CCN(CC)CC#N | 4.18
O/N=C/NO | 4.05
